The structures appear in SMILES notation.

This experiment has as its target T1, recombinant His-tag Y220C p53 DBD protein (Homo sapiens, UniProt P04637, Y220C).
T1 construct: recombinant His-tag Y220C p53 DBD protein (amino acids #˜94-312)
Briefly: In vitro DNA binding activity assay (TR-FRET): binding of His-tag Y220C p53 DBD to biotin-labeled consensus DNA. The experiment is classed as biochemical. As to conditions: SC150 = concentration to increase DNA binding by […], His-tag Y220C p53 DBD, biotin-labeled consensus DNA. Background: In TR-FRET formats the signal depends on donor and acceptor labels being close together.

In the case of `CO[C@H]1CCCC[C@@H]1n1cc(C(=O)NCc2nc(-c3cc4c(N[C@@H]5CCN(C)C[C@@H]5F)cccc4n3CC(F)(F)F)no2)cn1` (relative stereo) [Compound 385B], the “Y220C SC150 (μM)” value is “* (* = 0 μM ≤ SC150 < 0.1 μM)”.
Next, `Cc1cc(C(=O)NCc2nc(-c3cc4c(N[C@@H]5CCN(C)C[C@@H]5F)cccc4n3CC(F)(F)F)no2)cs1` [Compound 208B, N-{[3-(4-{[(3S,4R)-3-fluoro-1-methylpiperidin-4-yl]amino}-1-(2,2,2-trifluoroethyl)-1H-indol-2-yl)-1,2,4-oxadiazol-5-yl]methyl}-5-methylthiophene-3-carboxamide]: “* (* = 0 μM ≤ SC150 < 0.1 μM)”.
Next, `CN1CC[C@@H](Nc2cccc3c2cc(-c2noc(CNC(=O)c4ccc(C(C)(C)C#N)s4)n2)n3CC(F)(F)F)[C@@H](F)C1` [Compound 442B, 5-(1-cyano-1-methylethyl)-N-{[3-(4-{[(3S,4R)-3-fluoro-1-methylpiperidin-4-yl]amino}-1-(2,2,2-trifluoroethyl)-1H-indol-2-yl)-1,2,4-oxadiazol-5-yl]methyl}thiophene-2-carboxamide]: “* (* = 0 μM ≤ SC150 < 0.1 μM)”.
In the case of `CCOC1CCCC1n1cc(C(=O)NCc2nc(-c3cc4c(N[C@@H]5CCN(C)C[C@@H]5F)cccc4n3CC(F)(F)F)no2)cn1` (stereo in doubt) [Compound 375B, 1-[(1R,2R)-2-ethoxycyclopentyl]-N-{[3-(4-{[(3S,4R)-3-fluoro-1-methylpiperidin-4-yl]amino}-1-(2,2,2-trifluoroethyl)-1H-indol-2-yl)-1,2,4-oxadiazol-5-yl]methyl}-1H-pyrazole-4-carboxamide], the “Y220C SC150 (μM)” value is “* (* = 0 μM ≤ SC150 < 0.1 μM)”.
With `CN1CC[C@@H](Nc2cccc3c2cc(-c2noc(CNC(=O)c4ccn(CC(=O)O)c4)n2)n3CC(F)(F)F)[C@@H](F)C1` [Compound 238B, 2-[3-({[3-(4-{[(3S,4R)-3-fluoro-1-methylpiperidin-4-yl]amino}-1-(2,2,2-trifluoroethyl)-1H-indol-2-yl)-1,2,4-oxadiazol-5-yl]methyl}carbamoyl)-1H-pyrrol-1-yl]acetic acid] the entry was “* (* = 0 μM ≤ SC150 < 0.1 μM)”; with `CN1CCC(Nc2cccc3c2cc(-c2noc(CNC(=O)[C@@H]4C[C@@H]4F)n2)n3CC(F)(F)F)CC1` (racemic) [Compound 147B, (1S,2S)-2-fluoro-N-[(3-{4-[(1-methylpiperidin-4-yl)amino]-1-(2,2,2-trifluoroethyl)-1H-indol-2-yl}-1,2,4-oxadiazol-5-yl)methyl]cyclopropane-1-carboxamide], “* (* = 0 μM ≤ SC150 < 0.1 μM)”.
With `CCn1ccc(C(=O)NCc2nc(-c3cc4c(N[C@@H]5CCN(C)C[C@@H]5F)cccc4n3CC(F)(F)F)no2)c1` [Compound 186B, 1-ethyl-N-{[3-(4-{[(3S,4R)-3-fluoro-1-methylpiperidin-4-yl]amino}-1-(2,2,2-trifluoroethyl)-1H-indol-2-yl)-1,2,4-oxadiazol-5-yl]methyl}-1H-pyrrole-3-carboxamide] the entry was “* (* = 0 μM ≤ SC150 < 0.1 μM)”; with `CN1CCC(Nc2cccc3c2cc(-c2noc(CNC(=O)c4ccn(C)n4)n2)n3CC(F)(F)F)CC1` [Compound 155B, 1-methyl-N-[(3-{4-[(1-methylpiperidin-4-yl)amino]-1-(2,2,2-trifluoroethyl)-1H-indol-2-yl}-1,2,4-oxadiazol-5-yl)methyl]-1H-pyrazole-3-carboxamide], “* (* = 0 μM ≤ SC150 < 0.1 μM)”; with `CN1CC[C@@H](Nc2cccc3c2cc(-c2noc(C(=O)NCC4CCOCC4)n2)n3CC(F)(F)F)[C@@H](F)C1` [Compound 558B, 3-(4-{[(3S,4R)-3-fluoro-1-methylpiperidin-4-yl]amino}-1-(2,2,2-trifluoroethyl)-1H-indol-2-yl)-N-[(oxan-4-yl)methyl]-1,2,4-oxadiazole-5-carboxamide], “* (* = 0 μM ≤ SC150 < 0.1 μM)”.
With `CN(C)CC1(n2ccc(C(=O)NCc3nc(-c4cc5c(N[C@@H]6CCN(C)C[C@@H]6F)cccc5n4CC(F)(F)F)no3)c2)CC1` [Compound 482B, 1-{1-[(dimethylamino)methyl]cyclopropyl}-N-{[3-(4-{[(3S,4R)-3-fluoro-1-methylpiperidin-4-yl]amino}-1-(2,2,2-trifluoroethyl)-1H-indol-2-yl)-1,2,4-oxadiazol-5-yl]methyl}-1H-pyrrole-3-carboxamide], the “Y220C SC150 (μM)” value is recorded as “* (* = 0 μM ≤ SC150 < 0.1 μM)”.
With `CC(C)c1ccc(C(=O)NCc2nc(-c3cc4c(N[C@@H]5CCN(C)C[C@@H]5F)cccc4n3CC(F)(F)F)no2)s1` [Compound 444B, N-{[3-(4-{[(3S,4R)-3-fluoro-1-methylpiperidin-4-yl]amino}-1-(2,2,2-trifluoroethyl)-1H-indol-2-yl)-1,2,4-oxadiazol-5-yl]methyl}-5-(propan-2-yl)thiophene-2-carboxamide] the entry was “* (* = 0 μM ≤ SC150 < 0.1 μM)”.
Turning to `CN1CC[C@@H](Nc2cccc3c2cc(-c2noc(CNC(=O)c4ccn(C5CC5)c4)n2)n3CC(F)(F)F)[C@@H](F)C1` [Compound 218B, 1-cyclopropyl-N-{[3-(4-{[(3S,4R)-3-fluoro-1-methylpiperidin-4-yl]amino}-1-(2,2,2-trifluoroethyl)-1H-indol-2-yl)-1,2,4-oxadiazol-5-yl]methyl}-1H-pyrrole-3-carboxamide], the “Y220C SC150 (μM)” value is on record as “* (* = 0 μM ≤ SC150 < 0.1 μM)”.
Regarding `COC(=O)NCc1nnc(-c2cc3c(N[C@@H]4CCN(C)C[C@@H]4F)cccc3n2CC(F)(F)F)s1` (racemic) [Compound 38B, (+/−)-methyl N-{[5-(4-{[(3R,4S)-3-fluoro-1-methylpiperidin-4-yl]amino}-1-(2,2,2-trifluoroethyl)-1H-indol-2-yl)-1,3,4-thiadiazol-2-yl]methyl}carbamate], the “Y220C SC150 (μM)” value is “* (* = 0 μM ≤ SC150 < 0.1 μM)”.
With `CN1CC[C@@H](Nc2cccc3c2cc(-c2nnc(CNC(=O)c4ccn(C5(C)CCOCC5)c4)s2)n3CC(F)(F)F)[C@@H](F)C1` [Compound 287B, N-{[5-(4-{[(3S,4R)-3-fluoro-1-methylpiperidin-4-yl]amino}-1-(2,2,2-trifluoroethyl)-1H-indol-2-yl)-1,3,4-thiadiazol-2-yl]methyl}-1-(4-methyloxan-4-yl)-1H-pyrrole-3-carboxamide] the entry was “* (* = 0 μM ≤ SC150 < 0.1 μM)”.
As for `CC(C)(C)n1ccc(C(=O)NCc2nc(-c3cc4c(N[C@H]5CC[C@@H](F)CC5)cccc4n3CC(F)(F)F)no2)c1` [Compound 343B, 1-tert-butyl-N-{[3-(4-{[(1s,4s)-4-fluorocyclohexyl]amino}-1-(2,2,2-trifluoroethyl)-1H-indol-2-yl)-1,2,4-oxadiazol-5-yl]methyl}-1H-pyrrole-3-carboxamide], the “Y220C SC150 (μM)” value is recorded as “* (* = 0 μM ≤ SC150 < 0.1 μM)”.
On to `CN1CC[C@@H](Nc2cccc3c2cc(-c2noc(CNC(=O)c4csc(N5CCOCC5)n4)n2)n3CC(F)(F)F)[C@@H](F)C1` [Compound 465B, N-{[3-(4-{[(3S,4R)-3-fluoro-1-methylpiperidin-4-yl]amino}-1-(2,2,2-trifluoroethyl)-1H-indol-2-yl)-1,2,4-oxadiazol-5-yl]methyl}-2-(morpholin-4-yl)-1,3-thiazole-4-carboxamide], for which the “Y220C SC150 (μM)” value is “* (* = 0 μM ≤ SC150 < 0.1 μM)”.
With `CN1CC[C@@H](Nc2cccc3c2cc(-c2noc(CNC(=O)c4cn(C(C)(C)C)cn4)n2)n3CC(F)(F)F)[C@@H](F)C1` [Compound 292B, 1-tert-butyl-N-{[3-(4-{[(3S,4R)-3-fluoro-1-methylpiperidin-4-yl]amino}-1-(2,2,2-trifluoroethyl)-1H-indol-2-yl)-1,2,4-oxadiazol-5-yl]methyl}-1H-imidazole-4-carboxamide] the entry was “* (* = 0 μM ≤ SC150 < 0.1 μM)”; with `CN1CC[C@@H](Nc2cccc3c2cc(-c2noc(CNC(=O)c4ccsc4Cl)n2)n3CC(F)(F)F)[C@@H](F)C1` [Compound 215B, 2-chloro-N-{[3-(4-{[(3S,4R)-3-fluoro-1-methylpiperidin-4-yl]amino}-1-(2,2,2-trifluoroethyl)-1H-indol-2-yl)-1,2,4-oxadiazol-5-yl]methyl}thiophene-3-carboxamide], “* (* = 0 μM ≤ SC150 < 0.1 μM)”; with `CN1CC[C@@H](Nc2cccc3c2cc(-c2noc(CNC(=O)c4ccn(C(C)(C)CO)c4)n2)n3CC(F)(F)F)[C@@H](F)C1` [Compound 441B], “* (* = 0 μM ≤ SC150 < 0.1 μM)”.
Turning to `CN1CC[C@@H](Nc2cccc3c2cc(-c2noc(CNC(=O)c4ccc(C5(CO)CC5)s4)n2)n3CC(F)(F)F)[C@@H](F)C1` [Compound 486B, N-{[3-(4-{[(3S,4R)-3-fluoro-1-methylpiperidin-4-yl]amino}-1-(2,2,2-trifluoroethyl)-1H-indol-2-yl)-1,2,4-oxadiazol-5-yl]methyl}-5-[1-(hydroxymethyl)cyclopropyl]thiophene-2-carboxamide], the “Y220C SC150 (μM)” value was “* (* = 0 μM ≤ SC150 < 0.1 μM)”.
With `CN1CCC(Nc2cccc3c2cc(-c2nnc(CNC(=O)[C@@H]4C[C@@H]4C(=O)O)s2)n3CC(F)(F)F)CC1` (racemic) [Compound 81B, (+/−)-(1R,2S)-2-{[(5-{4-[(1-methylpiperidin-4-yl)amino]-1-(2,2,2-trifluoroethyl)-1H-indol-2-yl}-1,3,4-thiadiazol-2-yl)methyl]carbamoyl}cyclopropane-1-carboxylic acid] the entry was “** (** = 0.1 μM ≤ SC150 < 0.5 μM)”; with `C[C@@H]1CN(C)CC[C@@H]1Nc1cccc2c1cc(-c1noc(CNC(=O)c3cnn(C(C)(C)C)c3)n1)n2CC(F)(F)F` [Compound 511B, 1-tert-butyl-N-{[3-(4-{[(3R,4S)-1,3-dimethylpiperidin-4-yl]amino}-1-(2,2,2-trifluoroethyl)-1H-indol-2-yl)-1,2,4-oxadiazol-5-yl]methyl}-1H-pyrazole-4-carboxamide], “* (* = 0 μM ≤ SC150 < 0.1 μM)”.

The record behind these values is patent publication US11807644B2 (PMV Pharmaceuticals, Inc., priority 2020, dated 2023).
